Tested on: rats
Assay: Tolerability in rats after oral administration
Format: in vivo
Settings: oral administration of 10 mg/kg

Compound	toxic side effects
CC#CCn1c(N2CCC[C@@H](N)C2)nc2c1c(=O)n(Cc1nc3ccccc3c(C)[n+]1[O-])c(=O)n2C [Example 1, 1-[(4-methyl-3-oxy-quinazolin-2-yl)methyl]-3-methyl-7-(2-butyn-1-yl)-8-((R)-3-amino-piperidin-1-yl)-xanthine]	no toxic side effects could be detected

Molecular target: T1, DPP-IV (Homo sapiens, UniProt P27487)
T1 construct: an extract of the human colon carcinoma cell line Caco-2 is used as the DPP IV source; endogenous in cells; host or cells: Caco-2 (human colon carcinoma), differentiated to induce DPP-IV expression; Nonidet-P40 solubilised extract
Assay: DPP-IV assay with Caco-2 cell extract, AFC substrate, fluorescence
Format: biochemical
Settings: extract of human colon carcinoma cell line Caco-2 as DPP IV source; AFC substrate 100 μM; 60 minutes, ambient temperature; read-out: DPP IV inhibition IC50
Method: The differentiation of the cells in order to induce the DPP-IV expression was carried out in accordance with the description by Reiher et al. in an article entitled “Increased expression of intestinal cell line Caco-2”, which appeared in Proc. Natl. Acad. Sci. Vol. 90, pp. 5757–5761 (1993). The cell extract was obtained from cells solubilised in a buffer (10 mM Tris HCl, 0.15 M NaCl, 0.04 t.i.u. aprotinin, 0.5% Nonidet-P40, pH 8.0) by centrifugation at 35,000 g for 30 minutes at 4° C. (to remove cell debris).
The DPP-IV assay was carried out as follows:
50 μl of substrate solution (AFC; AFC is amido-4-trifluoromethylcoumarin), final concentration 100 μM, were placed in black microtitre plates. 20 μl of assay buffer (final concentrations 50 mM Tris HCl pH 7.8, 50 mM NaCl, 1% DMSO) was pipetted in. The reaction was started by the addition of 30 μl of solubilised Caco-2 protein (final concentration 0.14 μg of protein per well). The test substances under investigation were typically added prediluted to 20 μl, while the volume of assay buffer was then reduced accordingly. The reaction was carried out at ambient temperature, the incubation period was 60 minutes. Then the fluorescence was measured in a Victor 1420 Multilabel Counter, with the excitation wavelength at 405 nm and the emission wavelength at 535 nm. Dummy values (corresponding to 0% activity) were obtained in mixtures with no Caco-2 protein (volume replaced by assay buffer), control values (corresponding to 100% activity) were obtained in mixtures without any added substance. The potency of the test substances in question, expressed as IC50 values, were calculated from dosage/activity curves consisting of 11 measured points in each case.

T1 sequence (P27487 whole entry): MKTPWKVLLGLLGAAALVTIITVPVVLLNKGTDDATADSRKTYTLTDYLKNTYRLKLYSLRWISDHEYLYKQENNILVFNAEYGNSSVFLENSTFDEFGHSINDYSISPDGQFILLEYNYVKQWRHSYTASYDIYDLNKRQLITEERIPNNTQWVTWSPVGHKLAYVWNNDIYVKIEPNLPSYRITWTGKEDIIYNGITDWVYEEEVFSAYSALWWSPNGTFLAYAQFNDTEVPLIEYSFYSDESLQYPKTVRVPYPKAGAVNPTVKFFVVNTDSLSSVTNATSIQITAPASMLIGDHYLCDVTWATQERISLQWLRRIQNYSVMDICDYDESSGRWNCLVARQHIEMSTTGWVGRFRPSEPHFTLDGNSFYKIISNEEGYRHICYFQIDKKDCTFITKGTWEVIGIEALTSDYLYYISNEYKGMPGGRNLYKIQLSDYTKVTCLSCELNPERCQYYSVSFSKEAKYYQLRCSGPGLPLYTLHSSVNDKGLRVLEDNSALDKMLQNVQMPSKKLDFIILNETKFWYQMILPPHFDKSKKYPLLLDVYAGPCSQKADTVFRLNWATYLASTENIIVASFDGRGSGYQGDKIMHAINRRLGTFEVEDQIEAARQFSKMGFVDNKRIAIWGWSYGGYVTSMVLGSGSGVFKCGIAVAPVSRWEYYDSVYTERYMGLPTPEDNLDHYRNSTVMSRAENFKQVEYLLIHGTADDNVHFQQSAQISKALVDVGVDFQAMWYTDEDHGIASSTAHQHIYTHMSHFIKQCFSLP

Compound	IC50 [nM]
1-[(1-oxy-quinolin-2-yl)methyl]-3-methyl-7-(2-butyn-1-yl)-8-((R)-3-amino-piperidin-1-yl)-xanthine [1(1)]	1
CC#CCn1c(N2CCC[C@@H](N)C2)nc2c1c(=O)n(Cc1c3ccccc3cc(C)[n+]1[O-])c(=O)n2C [1(2), 1-[(3-methyl-2-oxy-isoquinolin-1-yl)methyl]-3-methyl-7-(2-butyn-1-yl)-8-((R)-3-amino-piperidin-1-yl)-xanthine]	4
CC#CCn1c(N2CCC[C@@H](N)C2)nc2c1c(=O)n(Cc1c3ccccc3c3ccccc3[n+]1[O-])c(=O)n2C [1(3), 1-[(5-oxy-phenanthridin-6-yl)methyl]-3-methyl-7-(2-butyn-1-yl)-8-((R)-3-amino-piperidin-1-yl)-xanthine]	6
CC#CCn1c(N2CCC[C@@H](N)C2)nc2c1c(=O)n(Cc1nc3ccccc3c[n+]1[O-])c(=O)n2C [1(4), 1-[(3-oxy-quinazolin-2-yl)methyl]-3-methyl-7-(2-butyn-1-yl)-8-((R)-3-amino-piperidin-1-yl)-xanthine]	2
CC#CCn1c(N2CCC[C@@H](N)C2)nc2c1c(=O)n(Cc1nc3ccccc3c(C)[n+]1[O-])c(=O)n2C [Example 1, 1-[(4-methyl-3-oxy-quinazolin-2-yl)methyl]-3-methyl-7-(2-butyn-1-yl)-8-((R)-3-amino-piperidin-1-yl)-xanthine]	2

— patent publication US7183280B2, “Bicyclic imidazole derivatives, the preparation thereof and their use as pharmaceutical compositions” (Boehringer Ingelheim International GmbH, priority 2004, dated 2007)
